# According to PubChem BioAssay (NCI):
#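 The compound was tested at five concentrations on cells cultured in 96-well plates, with a 48-hour exposure period. GI50: concentration for 50% inhibition of growth. At the TGI there is no net growth.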
# How the values were obtained:
# Experiment in all cases: inhibition of tumour cell growth, NCI panel, 48 h
# NCI-H460 lung = test system: NCI-H460 lung
# U251 CNS = test system: U251 CNS
# OVCAR-5 ovarian = test system: OVCAR-5 ovarian
# DU-145 prostate = test system: DU-145 prostate
# OVCAR-8 ovarian = test system: OVCAR-8 ovarian
# MOLT-4 leukemia = test system: MOLT-4 leukemia
# RPMI-8226 leukemia = test system: RPMI-8226 leukemia
# SW-620 colon = test system: SW-620 colon
# HL-60(TB) leukemia = test system: HL-60(TB) leukemia
# SF-539 CNS = test system: SF-539 CNS
# NCI-H226 lung = test system: NCI-H226 lung
# A498 renal = test system: A498 renal
# A549 NSCLC = test system: A549 NSCLC
# HCT-116 colon = test system: HCT-116 colon
# SF-268 CNS = test system: SF-268 CNS
# HT29 colon = test system: HT29 colon
# ACHN renal = test system: ACHN renal
# NCI/ADR-RES ovarian = test system: NCI/ADR-RES ovarian
# CCRF-CEM leukemia = test system: CCRF-CEM leukemia
# 786-0 renal = test system: 786-0 renal
# HOP-62 NSCLC = test system: HOP-62 NSCLC
# SK-MEL-2 melanoma = test system: SK-MEL-2 melanoma
# HOP-92 NSCLC = test system: HOP-92 NSCLC
# BT-549 breast = test system: BT-549 breast
# OVCAR-3 ovarian = test system: OVCAR-3 ovarian
# HS 578T breast = test system: HS 578T breast
# SR leukemia = test system: SR leukemia
# COLO 205 colon = test system: COLO 205 colon
# SNB-19 CNS = test system: SNB-19 CNS
# KM12 colon = test system: KM12 colon
# MDA-MB-231 breast = test system: MDA-MB-231 breast
# UACC-62 melanoma = test system: UACC-62 melanoma
# HCT-15 colon = test system: HCT-15 colon
# SK-OV-3 ovarian = test system: SK-OV-3 ovarian
# MALME-3M melanoma = test system: MALME-3M melanoma
# MCF7 breast = test system: MCF7 breast
# SNB-75 CNS = test system: SNB-75 CNS
# UO-31 renal = test system: UO-31 renal
# UACC-257 melanoma = test system: UACC-257 melanoma
# EKVX NSCLC = test system: EKVX NSCLC
# SK-MEL-5 melanoma = test system: SK-MEL-5 melanoma
# RXF 393 renal = test system: RXF 393 renal
# HCC-2998 colon = test system: HCC-2998 colon
# K-562 leukemia = test system: K-562 leukemia
# SN12C renal = test system: SN12C renal
# T-47D breast = test system: T-47D breast
# SF-295 CNS = test system: SF-295 CNS
# M14 melanoma = test system: M14 melanoma
# MDA-MB-435 = test system: MDA-MB-435
# NCI-H522 lung = test system: NCI-H522 lung
# CAKI-1 renal = test system: CAKI-1 renal
# SK-MEL-28 melanoma = test system: SK-MEL-28 melanoma
# PC-3 prostate = test system: PC-3 prostate
# NCI-H23 lung = test system: NCI-H23 lung
# IGROV1 ovarian = test system: IGROV1 ovarian
# TK-10 renal = test system: TK-10 renal
# OVCAR-4 ovarian = test system: OVCAR-4 ovarian
# LOX IMVI melanoma = test system: LOX IMVI melanoma
smiles,measurement,setting,value
Cn1ccnc1C(=O)/C=C/c1ccc(C(=O)Nc2ccc(F)cc2)cc1,GI50,NCI-H460 lung,1060 nM
same,TGI,NCI-H460 lung,2660 nM
same,GI50,U251 CNS,747 nM
same,TGI,U251 CNS,2710 nM
same,GI50,OVCAR-5 ovarian,1540 nM
same,TGI,OVCAR-5 ovarian,26500 nM
same,GI50,DU-145 prostate,1610 nM
same,TGI,DU-145 prostate,> 50000 nM
same,GI50,OVCAR-8 ovarian,1490 nM
same,TGI,OVCAR-8 ovarian,> 50000 nM
same,GI50,MOLT-4 leukemia,1480 nM
same,TGI,MOLT-4 leukemia,> 50000 nM
same,GI50,RPMI-8226 leukemia,224 nM
same,TGI,RPMI-8226 leukemia,1540 nM
same,GI50,SW-620 colon,223 nM
same,TGI,SW-620 colon,7970 nM
same,GI50,HL-60(TB) leukemia,933 nM
same,TGI,HL-60(TB) leukemia,3120 nM
same,GI50,SF-539 CNS,851 nM
same,TGI,SF-539 CNS,1790 nM
same,GI50,NCI-H226 lung,1510 nM
same,TGI,NCI-H226 lung,> 12400 nM
same,GI50,A498 renal,1050 nM
same,TGI,A498 renal,3530 nM
same,GI50,A549 NSCLC,1410 nM
same,TGI,A549 NSCLC,> 50000 nM
same,GI50,HCT-116 colon,343 nM
same,TGI,HCT-116 colon,1120 nM
same,GI50,SF-268 CNS,1910 nM
same,TGI,SF-268 CNS,> 50000 nM
same,GI50,HT29 colon,877 nM
same,TGI,HT29 colon,> 50000 nM
same,GI50,ACHN renal,1010 nM
same,TGI,ACHN renal,2110 nM
same,GI50,NCI/ADR-RES ovarian,1250 nM
same,TGI,NCI/ADR-RES ovarian,> 50000 nM
same,GI50,CCRF-CEM leukemia,853 nM
same,TGI,CCRF-CEM leukemia,> 50000 nM
same,GI50,786-0 renal,1140 nM
same,TGI,786-0 renal,3140 nM
same,GI50,HOP-62 NSCLC,1380 nM
same,TGI,HOP-62 NSCLC,> 16400 nM
same,GI50,SK-MEL-2 melanoma,5660 nM
same,TGI,SK-MEL-2 melanoma,39700 nM
same,GI50,HOP-92 NSCLC,1310 nM
same,TGI,HOP-92 NSCLC,> 41000 nM
same,GI50,BT-549 breast,667 nM
same,TGI,BT-549 breast,4220 nM
same,GI50,OVCAR-3 ovarian,812 nM
same,TGI,OVCAR-3 ovarian,4280 nM
same,GI50,HS 578T breast,1660 nM
same,TGI,HS 578T breast,> 50000 nM
same,GI50,SR leukemia,171 nM
same,TGI,SR leukemia,3110 nM
same,GI50,COLO 205 colon,1470 nM
same,TGI,COLO 205 colon,5420 nM
same,GI50,SNB-19 CNS,1360 nM
same,TGI,SNB-19 CNS,6310 nM
same,GI50,KM12 colon,481 nM
same,TGI,KM12 colon,2000 nM
same,GI50,MDA-MB-231 breast,1710 nM
same,TGI,MDA-MB-231 breast,> 50000 nM
same,GI50,UACC-62 melanoma,1370 nM
same,TGI,UACC-62 melanoma,4860 nM
same,GI50,HCT-15 colon,274 nM
same,TGI,HCT-15 colon,2500 nM
same,GI50,SK-OV-3 ovarian,2550 nM
same,TGI,SK-OV-3 ovarian,> 50000 nM
same,GI50,MALME-3M melanoma,3270 nM
same,TGI,MALME-3M melanoma,> 50000 nM
same,GI50,MCF7 breast,472 nM
same,TGI,MCF7 breast,> 50000 nM
same,GI50,SNB-75 CNS,919 nM
same,TGI,SNB-75 CNS,16800 nM
same,GI50,UO-31 renal,814 nM
same,TGI,UO-31 renal,2690 nM
same,GI50,UACC-257 melanoma,3140 nM
same,TGI,UACC-257 melanoma,> 50000 nM
same,GI50,EKVX NSCLC,2200 nM
same,TGI,EKVX NSCLC,20800 nM
same,GI50,SK-MEL-5 melanoma,1490 nM
same,TGI,SK-MEL-5 melanoma,4630 nM
same,GI50,RXF 393 renal,780 nM
same,TGI,RXF 393 renal,1640 nM
same,GI50,HCC-2998 colon,915 nM
same,TGI,HCC-2998 colon,2000 nM
same,GI50,K-562 leukemia,163 nM
same,TGI,K-562 leukemia,> 50000 nM
same,GI50,SN12C renal,1370 nM
same,TGI,SN12C renal,> 50000 nM
same,GI50,T-47D breast,1240 nM
same,TGI,T-47D breast,> 50000 nM
same,GI50,SF-295 CNS,1820 nM
same,TGI,SF-295 CNS,> 37100 nM
same,GI50,M14 melanoma,1160 nM
same,TGI,M14 melanoma,3810 nM
same,GI50,MDA-MB-435,1590 nM
same,TGI,MDA-MB-435,11000 nM
same,GI50,NCI-H522 lung,1170 nM
same,TGI,NCI-H522 lung,4700 nM
same,GI50,CAKI-1 renal,1070 nM
same,TGI,CAKI-1 renal,> 50000 nM
same,GI50,SK-MEL-28 melanoma,1800 nM
same,TGI,SK-MEL-28 melanoma,9650 nM
same,GI50,PC-3 prostate,1250 nM
same,TGI,PC-3 prostate,> 50000 nM
same,GI50,NCI-H23 lung,1300 nM
same,TGI,NCI-H23 lung,5360 nM
same,GI50,IGROV1 ovarian,1240 nM
same,TGI,IGROV1 ovarian,4440 nM
same,GI50,TK-10 renal,1510 nM
same,TGI,TK-10 renal,7490 nM
same,GI50,OVCAR-4 ovarian,1380 nM
same,TGI,OVCAR-4 ovarian,> 50000 nM
same,GI50,LOX IMVI melanoma,520 nM
same,TGI,LOX IMVI melanoma,1350 nM
